# Measurements taken from PMC5830651 (Molecular Oncology, 2018).
# Experiments:
# Type in all cases: biochemical
# PDGFB = target: T1, PDGFB (Homo sapiens, UniProt P09619); assay: in vitro kinase assay
# T1 construct: gene PDGFRB; recombinant kinase; printed PDGFB, must be the receptor kinase PDGFR beta
# Description: in vitro kinase assay on PDGFB
# CDK6/D3 = target: T2, CDK6/D3 (Homo sapiens, UniProt Q00534); assay: in vitro kinase assay; conditions: read-out: CCT068127 Mean IC50 (μmol.L^-1) ± SE; mean of three independent repeats
# T2 construct: recombinant human kinase complex; with G1/S-specific cyclin-D3
# Description: in vitro kinase assay on CDK6/D3
# SAP2KA = target: T3, SAP2KA (Homo sapiens, UniProt Q16539); assay: in vitro kinase assay
# T3 construct: gene MAPK14; recombinant; printed SAP2KA, read as SAPK2A
# Description: in vitro kinase assay on SAP2KA
# FLT3 = target: T4, FLT3 (Homo sapiens, UniProt P36888); assay: in vitro kinase assay
# T4 construct: recombinant
# T4 sequence (P36888 27-993): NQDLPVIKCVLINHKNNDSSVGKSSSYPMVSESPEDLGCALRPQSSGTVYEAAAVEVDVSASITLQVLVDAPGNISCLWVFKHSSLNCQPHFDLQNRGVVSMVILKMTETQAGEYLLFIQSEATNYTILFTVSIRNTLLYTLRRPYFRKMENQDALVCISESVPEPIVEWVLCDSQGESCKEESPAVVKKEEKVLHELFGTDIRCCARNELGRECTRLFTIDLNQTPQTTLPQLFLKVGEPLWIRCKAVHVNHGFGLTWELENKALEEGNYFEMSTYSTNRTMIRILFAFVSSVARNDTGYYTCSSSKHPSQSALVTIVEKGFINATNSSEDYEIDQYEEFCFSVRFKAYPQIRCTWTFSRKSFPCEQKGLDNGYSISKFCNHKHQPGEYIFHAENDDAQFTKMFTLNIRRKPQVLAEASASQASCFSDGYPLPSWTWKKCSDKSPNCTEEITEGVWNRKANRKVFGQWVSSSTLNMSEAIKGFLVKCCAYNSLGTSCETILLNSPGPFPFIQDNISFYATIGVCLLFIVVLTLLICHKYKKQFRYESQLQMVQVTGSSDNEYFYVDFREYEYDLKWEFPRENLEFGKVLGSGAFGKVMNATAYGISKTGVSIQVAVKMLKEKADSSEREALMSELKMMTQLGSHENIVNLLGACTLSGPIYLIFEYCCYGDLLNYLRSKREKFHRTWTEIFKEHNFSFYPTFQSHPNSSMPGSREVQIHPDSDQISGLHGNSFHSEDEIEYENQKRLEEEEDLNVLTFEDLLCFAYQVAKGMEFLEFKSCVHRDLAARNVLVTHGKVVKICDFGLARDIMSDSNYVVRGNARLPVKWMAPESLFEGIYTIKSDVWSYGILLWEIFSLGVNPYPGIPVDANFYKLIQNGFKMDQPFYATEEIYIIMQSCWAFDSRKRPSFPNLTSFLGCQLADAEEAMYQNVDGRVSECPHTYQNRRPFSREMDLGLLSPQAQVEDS
# Description: in vitro kinase assay on FLT3
# ERK2 = target: T5, ERK2 (Homo sapiens, UniProt P28482); assay: in vitro kinase assay
# T5 construct: gene MAPK1; recombinant
# Description: in vitro kinase assay on ERK2
# ABL = target: T6, ABL (Homo sapiens, UniProt P00519); assay: in vitro kinase assay
# T6 construct: gene ABL1; recombinant
# Description: in vitro kinase assay on ABL
# PLK1 = target: T7, PLK1 (Homo sapiens, UniProt P53350); assay: in vitro kinase assay
# T7 construct: recombinant
# Description: in vitro kinase assay on PLK1
# AURKA = target: T8, AURKA (Homo sapiens, UniProt O14965); assay: in vitro kinase assay
# T8 construct: recombinant
# T8 sequence (O14965 1-403): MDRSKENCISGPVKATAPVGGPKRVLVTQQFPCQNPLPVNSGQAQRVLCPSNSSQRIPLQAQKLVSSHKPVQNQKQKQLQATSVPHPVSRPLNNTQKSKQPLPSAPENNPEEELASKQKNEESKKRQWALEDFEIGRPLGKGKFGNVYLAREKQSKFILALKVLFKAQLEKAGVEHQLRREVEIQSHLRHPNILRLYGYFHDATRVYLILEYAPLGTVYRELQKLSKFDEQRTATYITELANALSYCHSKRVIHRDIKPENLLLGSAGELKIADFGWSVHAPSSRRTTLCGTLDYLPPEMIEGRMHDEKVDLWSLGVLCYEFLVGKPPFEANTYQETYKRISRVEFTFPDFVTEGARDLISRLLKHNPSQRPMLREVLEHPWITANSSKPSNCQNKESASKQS
# Description: in vitro kinase assay on AURKA
# CDK5/p35 = target: T9, CDK5/p35 (Homo sapiens, UniProt Q00535); assay: Invitrogen Select Screen kinase assay; conditions: read-out: CCT068127 Mean IC50 (μmol.L^-1) ± SE; mean of two determinations
# T9 construct: recombinant complex, Invitrogen Select Screen service
# Description: Invitrogen Select Screen kinase assay on CDK5/p35
# CDK1/B (CDK1/cyclin B) = target: T10, CDK1/B (CDK1/cyclin B) (Homo sapiens, UniProt P06493); assay: in vitro kinase assay; conditions: read-out: CCT068127 Mean IC50 (μmol.L^-1) ± SE; mean of three independent repeats
# T10 construct: recombinant human kinase complex; with G2/mitotic-specific cyclin-B1
# Description: in vitro kinase assay on CDK1/B (CDK1/cyclin B)
# SRC = target: T11, SRC (Homo sapiens, UniProt P12931); assay: in vitro kinase assay
# T11 construct: recombinant
# Description: in vitro kinase assay on SRC
# LCK = target: T12, LCK (Homo sapiens, UniProt P06239); assay: in vitro kinase assay
# T12 construct: recombinant
# Description: in vitro kinase assay on LCK
# T11 sequence (P12931 2-536): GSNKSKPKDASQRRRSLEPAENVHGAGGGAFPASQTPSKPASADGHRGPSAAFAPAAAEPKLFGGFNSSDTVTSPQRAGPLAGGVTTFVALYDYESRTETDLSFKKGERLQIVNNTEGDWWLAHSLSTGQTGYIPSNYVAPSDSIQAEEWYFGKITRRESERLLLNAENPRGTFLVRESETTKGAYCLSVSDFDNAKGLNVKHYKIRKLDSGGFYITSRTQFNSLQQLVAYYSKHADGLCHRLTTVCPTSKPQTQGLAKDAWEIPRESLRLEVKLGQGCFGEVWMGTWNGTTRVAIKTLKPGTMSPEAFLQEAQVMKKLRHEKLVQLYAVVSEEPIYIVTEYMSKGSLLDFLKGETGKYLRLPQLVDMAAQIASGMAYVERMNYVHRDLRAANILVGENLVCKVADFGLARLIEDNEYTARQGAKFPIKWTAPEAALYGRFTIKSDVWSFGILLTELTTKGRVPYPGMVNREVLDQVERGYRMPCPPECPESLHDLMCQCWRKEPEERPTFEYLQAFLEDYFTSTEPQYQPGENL
# T10 sequence (P06493 whole entry): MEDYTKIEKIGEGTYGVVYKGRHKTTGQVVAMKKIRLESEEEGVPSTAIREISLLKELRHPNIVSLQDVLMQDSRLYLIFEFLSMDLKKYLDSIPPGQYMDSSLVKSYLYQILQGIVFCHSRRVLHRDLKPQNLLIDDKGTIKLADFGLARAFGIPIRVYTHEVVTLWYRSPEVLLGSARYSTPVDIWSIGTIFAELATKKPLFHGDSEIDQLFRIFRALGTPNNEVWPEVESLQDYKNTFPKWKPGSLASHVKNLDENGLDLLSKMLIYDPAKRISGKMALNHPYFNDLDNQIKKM
# T10 sequence (P14635 whole entry partner): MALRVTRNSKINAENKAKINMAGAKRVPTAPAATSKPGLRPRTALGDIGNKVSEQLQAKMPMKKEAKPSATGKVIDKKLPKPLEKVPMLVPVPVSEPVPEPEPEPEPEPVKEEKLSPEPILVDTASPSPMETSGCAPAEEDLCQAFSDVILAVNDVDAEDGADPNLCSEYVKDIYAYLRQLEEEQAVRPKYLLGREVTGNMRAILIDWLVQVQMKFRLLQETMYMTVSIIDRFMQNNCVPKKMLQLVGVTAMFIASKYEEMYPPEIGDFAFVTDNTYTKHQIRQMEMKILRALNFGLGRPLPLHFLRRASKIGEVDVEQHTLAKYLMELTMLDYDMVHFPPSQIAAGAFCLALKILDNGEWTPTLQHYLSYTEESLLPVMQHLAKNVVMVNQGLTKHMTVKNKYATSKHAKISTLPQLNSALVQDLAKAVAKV
# T9 sequence (Q00535 whole entry): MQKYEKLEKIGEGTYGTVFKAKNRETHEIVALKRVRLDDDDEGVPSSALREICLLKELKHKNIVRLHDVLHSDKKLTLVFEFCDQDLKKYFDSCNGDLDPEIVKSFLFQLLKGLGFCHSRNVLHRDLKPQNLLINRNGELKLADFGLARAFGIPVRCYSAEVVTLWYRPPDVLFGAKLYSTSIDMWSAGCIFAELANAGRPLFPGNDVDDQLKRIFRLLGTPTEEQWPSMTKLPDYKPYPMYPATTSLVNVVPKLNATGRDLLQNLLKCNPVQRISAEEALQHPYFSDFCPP
# T9 sequence (Q15078 2-307 partner): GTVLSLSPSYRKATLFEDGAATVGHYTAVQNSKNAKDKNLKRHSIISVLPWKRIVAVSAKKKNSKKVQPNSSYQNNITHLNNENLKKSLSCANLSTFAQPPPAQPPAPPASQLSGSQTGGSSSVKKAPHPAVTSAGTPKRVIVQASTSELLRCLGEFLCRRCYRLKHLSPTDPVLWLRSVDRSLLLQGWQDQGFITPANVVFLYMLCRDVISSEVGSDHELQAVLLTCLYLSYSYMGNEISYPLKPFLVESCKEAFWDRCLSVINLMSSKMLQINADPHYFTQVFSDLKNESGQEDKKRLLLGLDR
# T7 sequence (P53350 2-603): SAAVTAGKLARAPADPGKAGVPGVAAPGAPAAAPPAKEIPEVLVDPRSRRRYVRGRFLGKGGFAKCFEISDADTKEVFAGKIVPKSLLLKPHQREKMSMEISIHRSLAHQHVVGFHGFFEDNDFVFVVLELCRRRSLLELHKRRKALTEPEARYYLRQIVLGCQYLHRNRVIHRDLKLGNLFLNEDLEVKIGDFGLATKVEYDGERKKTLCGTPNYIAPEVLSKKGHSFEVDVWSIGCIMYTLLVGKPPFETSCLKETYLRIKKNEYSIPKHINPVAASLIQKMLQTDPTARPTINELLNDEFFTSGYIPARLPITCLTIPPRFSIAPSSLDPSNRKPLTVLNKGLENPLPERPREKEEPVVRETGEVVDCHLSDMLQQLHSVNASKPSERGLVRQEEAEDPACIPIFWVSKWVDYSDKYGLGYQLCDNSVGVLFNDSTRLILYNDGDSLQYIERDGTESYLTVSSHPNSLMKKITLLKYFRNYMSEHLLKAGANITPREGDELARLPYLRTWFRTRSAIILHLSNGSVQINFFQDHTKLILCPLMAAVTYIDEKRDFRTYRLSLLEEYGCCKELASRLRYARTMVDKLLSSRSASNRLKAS
# T2 sequence (Q00534 whole entry): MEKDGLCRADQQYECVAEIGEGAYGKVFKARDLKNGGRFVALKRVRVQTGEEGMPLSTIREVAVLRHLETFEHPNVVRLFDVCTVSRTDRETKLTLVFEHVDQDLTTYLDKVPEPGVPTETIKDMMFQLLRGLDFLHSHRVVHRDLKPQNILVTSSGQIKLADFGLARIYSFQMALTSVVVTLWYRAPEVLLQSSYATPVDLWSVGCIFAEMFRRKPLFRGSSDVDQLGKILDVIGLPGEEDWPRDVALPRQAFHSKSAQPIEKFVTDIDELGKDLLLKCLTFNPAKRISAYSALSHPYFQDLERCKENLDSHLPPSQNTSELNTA
# T2 sequence (P30281 whole entry partner): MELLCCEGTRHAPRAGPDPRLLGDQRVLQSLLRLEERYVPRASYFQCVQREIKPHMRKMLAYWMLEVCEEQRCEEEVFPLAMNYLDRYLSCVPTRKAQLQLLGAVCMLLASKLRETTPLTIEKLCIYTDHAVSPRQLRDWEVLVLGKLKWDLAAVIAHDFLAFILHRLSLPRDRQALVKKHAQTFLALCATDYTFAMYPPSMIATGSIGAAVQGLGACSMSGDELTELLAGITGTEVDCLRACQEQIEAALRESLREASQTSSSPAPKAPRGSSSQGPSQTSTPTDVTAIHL
# T3 sequence (Q16539 2-360): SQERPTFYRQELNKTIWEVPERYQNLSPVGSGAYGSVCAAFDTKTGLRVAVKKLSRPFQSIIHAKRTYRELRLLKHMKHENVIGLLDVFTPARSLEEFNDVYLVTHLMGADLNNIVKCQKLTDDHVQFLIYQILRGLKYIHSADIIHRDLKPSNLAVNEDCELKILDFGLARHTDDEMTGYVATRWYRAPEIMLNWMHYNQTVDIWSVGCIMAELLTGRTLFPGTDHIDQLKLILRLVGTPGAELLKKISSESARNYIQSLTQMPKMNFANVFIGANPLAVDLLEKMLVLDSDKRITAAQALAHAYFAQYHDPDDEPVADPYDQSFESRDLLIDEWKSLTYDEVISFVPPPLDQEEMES
# T6 sequence (P00519 whole entry): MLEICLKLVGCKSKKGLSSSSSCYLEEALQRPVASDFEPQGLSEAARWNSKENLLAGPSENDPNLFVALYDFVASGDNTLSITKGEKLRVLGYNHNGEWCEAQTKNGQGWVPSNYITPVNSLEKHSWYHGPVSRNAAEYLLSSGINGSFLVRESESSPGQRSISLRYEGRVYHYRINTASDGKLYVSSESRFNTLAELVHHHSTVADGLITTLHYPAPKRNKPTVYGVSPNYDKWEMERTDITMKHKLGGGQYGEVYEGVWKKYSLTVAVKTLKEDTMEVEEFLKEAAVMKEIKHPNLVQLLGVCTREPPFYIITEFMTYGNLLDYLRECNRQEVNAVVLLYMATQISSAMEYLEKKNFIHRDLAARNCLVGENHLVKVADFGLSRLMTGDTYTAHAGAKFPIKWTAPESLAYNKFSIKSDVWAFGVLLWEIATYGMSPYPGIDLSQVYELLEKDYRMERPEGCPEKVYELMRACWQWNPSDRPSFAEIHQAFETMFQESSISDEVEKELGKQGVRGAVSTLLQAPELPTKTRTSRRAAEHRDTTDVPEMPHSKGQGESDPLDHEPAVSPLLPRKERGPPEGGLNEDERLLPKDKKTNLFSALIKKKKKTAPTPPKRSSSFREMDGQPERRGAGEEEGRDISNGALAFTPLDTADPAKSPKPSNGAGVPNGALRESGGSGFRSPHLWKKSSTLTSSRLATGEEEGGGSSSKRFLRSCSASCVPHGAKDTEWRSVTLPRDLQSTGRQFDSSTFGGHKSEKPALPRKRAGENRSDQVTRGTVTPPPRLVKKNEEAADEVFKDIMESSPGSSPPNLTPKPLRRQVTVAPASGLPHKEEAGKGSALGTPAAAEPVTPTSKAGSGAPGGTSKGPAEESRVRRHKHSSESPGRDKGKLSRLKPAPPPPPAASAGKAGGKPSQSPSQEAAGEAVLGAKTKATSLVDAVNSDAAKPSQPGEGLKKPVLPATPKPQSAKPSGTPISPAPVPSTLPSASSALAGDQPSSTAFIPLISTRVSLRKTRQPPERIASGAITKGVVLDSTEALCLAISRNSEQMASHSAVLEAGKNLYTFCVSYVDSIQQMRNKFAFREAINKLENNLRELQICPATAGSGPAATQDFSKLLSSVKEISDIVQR
# T5 sequence (P28482 2-360): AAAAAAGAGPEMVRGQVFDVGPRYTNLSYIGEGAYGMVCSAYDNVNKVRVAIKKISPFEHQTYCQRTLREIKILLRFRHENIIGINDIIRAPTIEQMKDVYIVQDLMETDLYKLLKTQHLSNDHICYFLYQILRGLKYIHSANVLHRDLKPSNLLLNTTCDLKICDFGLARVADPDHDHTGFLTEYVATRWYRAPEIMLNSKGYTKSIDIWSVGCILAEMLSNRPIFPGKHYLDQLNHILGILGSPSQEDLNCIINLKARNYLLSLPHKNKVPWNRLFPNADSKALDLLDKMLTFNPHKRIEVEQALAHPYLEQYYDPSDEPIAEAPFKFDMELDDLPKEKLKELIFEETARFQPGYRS
compound,measurement,setting,value
CC[C@H](Nc1nc(NCc2cccnc2)c2ncn(C(C)C)c2n1)[C@@H](C)O [CCT068127],IC50,PDGFB,> 10 µM
same,IC50,CDK6/D3,6.2 ± 0.6 µmol/L
same,IC50,SAP2KA,> 10 µM
same,IC50,FLT3,> 10 µM
same,IC50,ERK2,> 10 µM
same,IC50,ABL,> 10 µM
same,IC50,PLK1,> 10 µM
same,IC50,AURKA,> 10 µM
same,IC50,CDK5/p35,0.07 µmol/L
same,IC50,CDK1/B (CDK1/cyclin B),1.1 ± 0.29 µmol/L
same,IC50,SRC,> 10 µM
same,IC50,LCK,> 10 µM
